Measurements: US6911435B1 (Can-Fite Biopharma Ltd., priority 1997, dated 2005)

Tests used:
Nb2-11C lymphoma cells = assay: Cell count assay, proliferation of Nb2-11C lymphoma cells; assay type: cell-based, rat; conditions: adenosine 1-20 μM, 48 hours
Experimental: The Nb2-11C cells were synchronized in the GO/Gl phase prior to cultivation with the CM by transferring the cells to horse serum (Biological Industries, Beit Haemek, Israel) supplemented medium for overnight incubation. […] Cell proliferation was initiated by the addition of Human Growth Hormone (Biotechnology General, Rehovot, Israel) to a final concentration of 2 ng/ml. The cultures were incubated at 37° C. at 5% CO2 and counted in Coulter Counter 48 hours later.

[1] = tested on: human peripheral blood NK cells; assay: NK activity of peripheral blood cells, 51Cr-release assay, K562 targets; assay type: cell-based; conditions: 4 μM adenosine, 18 hours preincubation
Experimental: K562 cells were used as the targets (T) and were labeled with 100 μCi of Na2[^51Cr]O4 at 37° for 1 h. After extensive washing to remove the excess Cr, cells (1×10^4) were resuspended and mixed with the effector cells at the E:T ratio of […] in a volume of 200 μl using triplicate assays. After 4 h of incubation at 37° C. in 5% CO2, plates were centrifuged, and the supernatants were counted in a gamma counter (LKB). […] Spontaneous release was below 8% of the maximal release throughout this experiment.

B-16-F10 melanoma cells = assay: Example 4 in vivo: B-16-F10 melanoma lung tumor foci; set-up: species or system C57BL6/J mice; conditions: for No. of foci (melanoma tumor foci in the lung): 18 days, adenosine 1 ml 5 mM daily i.p.
K562 cells = assay: K562 cell proliferation with adenosine and theophylline; assay type: cell-based, human
Experimental: (§1) During the last 6 hours of incubation, each well was pulsed with 1 μCi[^3H]-Thymidine. The cells were harvested and the [^3H]-Thymidine uptake was determined in an LKB liquid scintillation counter (LKB, Piscataway, N.J., USA).
Culture conditions were identical to those described above.

[2] = tested on: normal cells (bone marrow cells, fibroblasts, L-8 myoblast); assay: [3H]-Thymidine incorporation assay, normal cells; assay type: cell-based, mice, rat; conditions: adenosine 4 μM, FIG. 2
Experimental: As a control for tumor proliferating cells, two normal proliferating cell types were used i.e., bone marrow cells derived from the femur of C57BL/6J mice; fibroblasts derived from primary cultures of newborn rat skeletal muscle cells. The cells were prepared as previously, (Djaldetti, M., Sredni, B., Zigelman, R., Verber, M., and Fishman, P. Muscle cells produce a low molecular weight factor with anti-cancer activity. Clin. Exp. Matastasis, 14:189-196, 1996). Also used was the L-8 myoblast rat cell line which was purchased from the ATCC.
as §1

IL-12 = IL-12 production by peripheral blood mononuclear cells; assay type: cell-based, human; conditions: 4 μM adenosine
Experimental: Mononuclear cells (MNC) were fractionated from heparinized blood of 10 healthy volunteers using Ficoll-Hypaque gradient. […] At the end of the incubation period the supernatant was collected, centrifuged and filtered through 0.22μ sterile filter and kept at −70° C. until assayed. The level of IL-12 in the supernatants was analyzed using a commercial kit of R&D System.

bone marrow cells [3] = assay: Example 2: proliferation capacity of bone marrow from treated mice ([3H]-Thymidine); assay type: in vivo, C57BL6/J mice; conditions: after 24 hours
Experimental: as §1
(§2) On day 6 the mice were injected intraperitoneally with 1 ml saline. • 4. chemotherapy group: daily injection of 1 ml saline for 5 consecutive days. On day 6 the mice were injected intraperitoneally with cyclophosphamide.
Five mice of each group were sacrificed […] and 96 hrs following the treatments and two parameters were evaluated: • 1. complete blood cell count. • 2. Proliferation capacity of bone marrow: bone marrow was aspirated from the femur and pooled for each tested group. The cells were separated, counted and the proliferative capacity was evaluated by the [^3H]-Thymidine incorporation assay as described above.

white blood cells [4] = assay: Example 2 in vivo: white blood cell count after adenosine and/or cyclophosphamide; set-up: species or system C57BL6/J mice; conditions: i.p.
Experimental: as §2
[…] Proliferation capacity of bone marrow: bone marrow was aspirated from the femur and pooled for each tested group. The cells were separated, counted and the proliferative capacity was evaluated by the [^3H]-Thymidine incorporation assay as described above.

blood cells = assay: Example 3 in vivo: blood cell parameters after adenosine and/or chemotherapy; conditions: for white blood cell count versus control: Example 3, in words
Experimental: 40 C57BL6/J were divided into 4 groups, each of which was treated (by intraperitoneal injection) according to one of the following protocols: • 1. Control group: 6 days of treatment by daily injection of 1 ml saline. • 2. Chemotherapy group: daily injection of 1 ml saline for 5 consecutive days. On day 6 the mice were injected intraperitoneally with cyclophosphamide. • 3. […] On day 6 the mice were injected intraperitoneally with 1 ml saline. • 4.
The following parameters were evaluated for each group: • i. Red blood cell (RBC) count. • ii. Hemoglobin (HGB) level. • iii. White blood cell count. • iv. Proportion of the three major groups of white blood cells: Lymphocytes (LYM), Monocytes (MID) and Granulocytes (GRAN). Results

NK cells = assay: NK activity of splenocytes from adenosine treated mice, Yac targets; assay type: in vivo, ICR mice; conditions: 5 consecutive days 10 μM adenosine; two effector:target ratios; FIG. 8
[5] = tested on: leukemia, lymphoma and the solid tumor cell lines; assay: [3H]-Thymidine incorporation assay, tumor cell lines; assay type: cell-based, human, murine; conditions: adenosine 4 μM, FIG. 2
Source text: Tumor cell lines from human (K562 myeloid leukemia, Tib-180 erythroleukemia, LNCaP prostate carcinoma and MDA-MB468 breast adenocarcinoma), and murine (Yac lymphoma, B-16 melanoma) were used and were purchased from the American Type Tissue Culture Collection, Rockville. Nb2 11c rat lymphoma cells (Pines et al.^(19), were also used. The cells were routinely maintained in RPM medium containing 10% fetal calf serum. Twice a week the cells were transferred to a freshly prepared medium.
as §1

bone marrow cells [6] = assay: Bone marrow cell proliferation in vitro (adenosine dose response, adenosine receptor antagonists); assay type: cell-based, C57BL/6J mice; conditions: FIG. 3
Experimental: as §1

white blood cells [7] = assay: Example 5 in vivo: white blood cell count and percentage of granulocytes; set-up: species or system C57BL6/J mice
Experimental: 50 C57BL6/J mice were divided into 5 groups of 10 mice each, which were treated by intraperitoneal injection with one of the following treatments: • 1. Control group: 6 days of treatment by daily injection of 1 ml saline. • 2. […] Chemotherapy group: daily injection of 1 ml saline for 5 consecutive days. On day 6 the mice were injected intraperitoneally with cyclophosphamide. • 5. […] On day 6 the mice were injected intraperitoneally with cyclophosphamide. Results

[8] = 5 μM adenosine group, daily i.p. 6 days
[9] = adenosine where given 10 μM, cyclophosphamide where given on day 6

## Nc1ncnc2c1ncn2[C@@H]1O[C@H](CO)[C@@H](O)[C@H]1O [adenosine]
Nb2-11C lymphoma cells
  growth of Nb2-11c rat lymphoma cells (cell count): markedly inhibited
[1]
  stimulation of NK activity: 32%
B-16-F10 melanoma cells
  No. of foci (melanoma tumor foci in the lung): 6.11 ± 2.74
B-16-F10 melanoma cells; oral 0.5 ml of 10 μM adenosine, about 54 μg/kg, with chemotherapeutic drug, FIG. 6
  tumor load (tumor foci in the lungs): synergized with the chemotherapeutic drug to reduce the tumor load
K562 cells; adenosine 4 μM, FIG. 4
  K562 tumor cell proliferation: inhibited tumor cell proliferation
[2]
  proliferation of the three tested normal cells: stimulated the proliferation
IL-12; 18 hours, FIG. 7
  production of IL-12 in the presence of SAC mitogen: stimulated the production of IL-12
IL-12; no mitogen
  stimulation of IL-12 production without mitogen: 19%
Bone marrow cells [3]
  Bone Marrow Cell Proliferation: 1480.0 ± 68.5 CPM
White blood cells [4]; 24 hours after treatment
  WBC count: 9.37 ± 0.26 × 10^6/ml
White blood cells [4]; 96 hours after treatment
  WBC count: 6.8 ± 0.73 × 10^6/ml
Blood cells
  white blood cell count versus control: boosted to levels above control
Blood cells; mean±S.E.
  % GRAN (granulocytes, % out of the number of white blood cells): 21.03 ± 2.75%
  % LYM (lymphocytes, % out of the number of white blood cells): 65.57 ± 3.35%
  % MID (monocytes, % out of the number of white blood cells): 13.4 ± 0.70%
Blood cells; mouse, in vivo
  HGB (hemoglobin count): 14.03 ± 0.20 gram/100 ml
NK cells
  NK activity of splenocytes, lysis of Yac target cells: more potent in lysing the Yac target cells
[5]
  proliferation of leukemia, lymphoma and solid tumor cell lines: induced proliferation inhibition
Bone marrow cells [6]
  concentration of peak stimulatory activity on bone marrow cell proliferation: about 10 μM
White blood cells [7]; [8]
  GRAN: 9.00%
  WBC: 9.50 count × 10^3/I
White blood cells [7]; [9]
  GRAN: 10.76%
  WBC: 7.56 count × 10^3/I

## O=P1(N(CCCl)CCCl)NCCCO1 (centres unmarked) [cyclophosphamide]
B-16-F10 melanoma cells
  No. of foci (melanoma tumor foci in the lung): 4.16 ± 1.42
Bone marrow cells [3]
  Bone Marrow Cell Proliferation: 434.5 ± 52.2 CPM
White blood cells [4]; 24 hours after treatment
  WBC count: 3.8 ± 0.18 × 10^6/ml
White blood cells [4]; 96 hours after treatment
  WBC count: 3.62 ± 0.17 × 10^6/ml
Blood cells
  white blood cell count versus control: caused a reduction in the amount of white blood cells
Blood cells; mean±S.E.
  % GRAN (granulocytes, % out of the number of white blood cells): 10.28 ± 1.59%
  % LYM (lymphocytes, % out of the number of white blood cells): 81.94 ± 2.49%
  % MID (monocytes, % out of the number of white blood cells): 7.78 ± 0.92%
  HGB (hemoglobin count): 14.88 ± 8.32 gram/100 ml
White blood cells [7]; [9]
  GRAN: 7.70%
  WBC: 5.00 count × 10^3/I

## Cn1c(=O)c2[nH]cnc2n(C)c1=O [theophylline, Theophylline]
K562 cells; theophylline 0.1 μM with 4 μM adenosine, K562
  effect on the inhibitory effect of adenosine on tumor cell proliferation: this inhibitory effect was neutralized
